From patent publication US20080021045A1, “7-Amino-5-Halopyrazolopyrimidines with a Fungicidal Action” (BAYER CROPSCIENCE AKTIENGESELLSCHSFT, priority 2003, published 2008)

Experiment: logP determination by HPLC (EEC Directive 79/831 Annex V. A8)
Format: physicochemical
Conditions: gradient method, acetonitrile/0.1% aqueous phosphoric acid

| chromatographic logP | SMILES |
| --- | --- |
| 4.59 | CCC(C)c1c(Cl)nc2c(C#N)cnn2c1NC(C)C(C)C (stereo not drawn) [Example 1, 3-cyano-5-chloro-6-(sec-butyl)-7-[(S+)-3-methyl-2-butylamino]pyrazolo[1,5-a]pyrimidine] |
| 4.17 | CCC(C)c1c(Cl)nc2c(C=O)cnn2c1NC(C)C(C)C (stereo not drawn) [Example 2, 3-formyl-5-chloro-6-(sec-butyl)-7-(3-methyl-2-butylamino)pyrazolo[1,5-a]pyrimidine] |
| 3.27 | CCC(C)c1c(Cl)nc2c(C#N)cnn2c1Cl (stereo not drawn) [Example 30, 3-cyano-5,7-dichloro-6-(sec-butyl)pyrazolo[1,5-a]pyrimidine] |
